Earlier results in patent US20260092085A1, “SYNTHETIC TRIPLEX PEPTIDE NUCLEIC ACID-BASED INHIBITORS FOR CANCER THERAPY” (University of Connecticut, priority 2022, published 2026).

Test system: U2932 lymphoma cell line
Conditions: U2932, 10 uM; cited from earlier work

## cobomarsen
  increase in apoptosis compared to control: 4 fold
